Reference: US3950427A, “Araliphatic ketones and carbinols” (Boehringer Ingelheim GmbH, priority 1973, dated 1976)
Like-named read-outs stand apart in the source and are kept apart here.

Tests used:
Assay type in all cases: in vivo, rat (male FW 49)
[1] = system: Kaolin edema and carrageenin edema of the hind paw of the rat; assay: Average value of kaolin edema and carrageenin edema; settings: per os, Table I; for ED35: Rattus norvegicus
Description: (§1) The compunds were tested for their anti-exudative effect on Kaolin-induced edema and carrageenin-induced edema in the hind paw of the rat after oral administration to the rat.
(§2) The kaolin edema was induced according to the method given by Hillebrecht [Arzneimittel-Forsch. 4, 607 (1954)] by subplanar injection of 0.05 ml of a 10% suspension of kaolin in a 0.85% sodium chloride solution. Measurement of the thickness of the paws was effected using the technique of Doepfner and Cerletti [Int. Arch. Allergy Immunol. 12, 89 (1958)].
(§3) The test compound was administered orally to male FW 49 rats weighing 120-150 gm by means of an esophageal tube 30 minutes before inducing the edema. 5 hours after inducing the edema the average size of the swelling in the rats treated with the test compound was compared with the size of the swelling in blind-treated control animals. By graphic extrapolation the dose leading to a 35% of the swelling (ED35) was calculated from the percentage reduction in the size of the swelling caused by the administration of different doses.
(§4) The carrageenin edema was induced according to the method of Winder et al. [Proc. Soc. exp. Biol. Med. 111, 544 (1962)] by subplanar injection of 0.05 ml of a 1% solution of carrageenin in a 0.85% solution of sodium chloride. The test compound was administered 60 minutes before the provocation of the edema.
(§5) For the calculation of the reductive effect on the edema, the size of the swelling was measured 3 hours after the provocation of the edema. All other details were the same as described above in the case of the kaolin edema.

[2] = system: Carrageenin-induced edema of the hind paw of the rat; assay: Carrageenin-induced edema of the hind paw of the rat (anti-exudative effect); settings: 60 minutes before provocation, swelling 3 hours after; for ED35: Rattus norvegicus, po, 3 h, read-out: Carrageenin edema ED35 per os; for Carrageenin edema ED35 per os: oral
Description: as §1, §3
b. Carrageenin-induced edema of the hind paw of the rat
as §4, §5

[3] = system: Kaolin-induced edema of the hind paw of the rat; assay: Kaolin-induced edema of the hind paw of the rat (anti-exudative effect); settings: 30 minutes before inducing edema, swelling 5 hours after; for ED35: Rattus norvegicus, po, 5 h, read-out: Kaolin edema ED35 per os; for Kaolin edema ED35 per os: oral
Description: as §1
a. Kaolin-induced edema of the hind paw of the rat
as §2, §3

Adjuvant arthritis-rat = assay: Adjuvant arthritis test on rats (M.butyricum); settings: po, 504 h, 21st day, once daily for 20 days by esophageal tube
Description: The adjuvant arthritis tests on rats were performed in analogy to the procedure described by Rosenthale and Nagra [Proc. Soc. exp. Biol. Med. 125, 149 (1967)].
Male FW 49-rats were given a subplantar injection of 0.1 ml of a 1% suspension of M.butyricum in viscous paraffin oil in a hind paw. The test compound was administered, beginning with the M.butyricum injection, once daily for 20 days by esophageal tube.
On the 21st day after inducing the arthritis, the volumes of the right paw (non-specific primary reaction at the place of injection) and the left paw (immunologically predicated specific secondary reaction) of the animals treated with the test compound were compared with those of the blind-treated control animals. From the swelling reduction obtained with the various doses, an ED50 was graphically determined.

[4] = left paw volume, read-out: Adjuvant arthritis-rat ED50 per os, Secondary reaction
[5] = right paw volume, read-out: Adjuvant arthritis-rat ED50 per os, Primary reaction

Structure (SMILES)	ED35 [1] [mg/kg]	ED35 ([2]; Table I) [mg/kg]	ED35 ([3]; Table I) [mg/kg]	other results
CC(=O)/C=C(\C)c1ccc([C@@H]2CCCC[C@H]2C)cc1 (relative stereo) [BB, (e,e)-4-[4-(2-methyl-cyclohexyl)-phenyl]-3-pentene-2-one]	16	13	19	–
CC(O)/C=C/c1ccc(-c2ccccc2)c(F)c1 (centres unmarked) [A, (e)-4-(2-fluoro-4-biphenylyl)-3-butene-2-ol]	13.7	12.4	15	–
CC(O)CC(C)c1ccc(C2CCCCC2)c(Br)c1 (centres unmarked) [AA, 4-(3-bromo-4-cyclohexyl-phenyl)-2-pentanol]	23.2	18.5	28	–
CC(O)CCc1ccc(-c2ccccc2)c(F)c1 (centres unmarked) [B, 4-(2-fluoro-4-biphenylyl)-2-butanol]	14	12	16	–
CC(O)CCCCCCc1ccc(-c2ccccc2F)cc1 (centres unmarked) [C, 8-(2'-fluoro-4-biphenylyl)-2-octanol]	16	17	15	–
CC(=O)CC(C)c1ccc(C2CCCCC2C)cc1 (centres unmarked) [CC, (e)-4-[4-(2-methyl-cyclohexyl)-phenyl]-2-pentanone]	25	21	29	–
CC(=O)CCCCc1ccc(-c2ccccc2F)cc1 [D, 6-(2'-fluoro-4-biphenylyl)-2-hexanone]	9.75	10.5	9	–
CC(=O)/C=C(\C)c1ccc(CC(C)C)c(Cl)c1 [DD, (e)-4-(3-chloro-4-isobutyl-phenyl)-3-pentene-2-one]	34.5	19	50	–
CC(=O)CC(C)c1ccc(-c2ccccc2)cc1 (centres unmarked) [E, 4-(4-biphenylyl)-2-pentanone]	18	15	21	ED35 ([2]; Table II): 15 mg/kg; ED35 ([3]; Table II): 21 mg/kg; ED50 (Adjuvant arthritis-rat; [4]): < 4 mg/kg; ED50 (Adjuvant arthritis-rat; [5]): < 4 mg/kg
C/C(=C\C(C)O)c1ccc(CC(C)C)c(Cl)c1 (centres unmarked) [EE, (e)-4-(3-chloro-4-isobutyl-phenyl)-3-pentane-2-ol]	53	52	54	–
CC(=O)CCCCCCc1ccc(-c2ccccc2F)cc1 [F, 8-(2'-fluoro-4-biphenylyl)-2-octanone]	12.2	14.5	9.8	–
C/C(=C\C(C)O)c1ccc(C2CCCCC2)cc1 (centres unmarked) [FF, (e)-4-(4-cyclohexyl-phenyl)-3-pentene-2-ol]	–	–	–	Average value ED35 [1]: 42 mgm/kg; Carrageenin edema ED35 per os ([2]; Table I): 35 mgm/kg; Kaolin edema ED35 per os ([3]; Table I): 49 mgm/kg
CC(=O)/C=C(\C)c1ccc(-c2ccccc2)cc1 [G, (e)-4-(4-biphenylyl)-3-pentene-2-one]	16.1	8.6	23.5	–
CC(=O)/C=C(\C)c1ccc(-c2ccccc2F)cc1 [H, (e)-4-(2'-fluoro-4-biphenylyl)-3-pentene-2-one]	22.9	8.9	37	ED35 ([2]; Table II): 11 mg/kg; ED35 ([3]; Table II): 37 mg/kg; ED50 (Adjuvant arthritis-rat; [4]): < 1 mg/kg; ED50 (Adjuvant arthritis-rat; [5]): < 2 mg/kg
CC(O)CC(C)c1ccc(-c2ccccc2)c(F)c1 (centres unmarked) [I, 4-(2-fluoro-4-biphenylyl)-2-pentanol]	16.8	16.5	17	–
C/C(=C\C(C)O)c1ccc(-c2ccccc2F)cc1 (centres unmarked) [K, (e)-4-(2'-fluoro-4-biphenylyl)-3-pentene-2-ol]	15.2	12.8	17.5	ED35 ([2]; Table II): 17 mg/kg; ED35 ([3]; Table II): 17.5 mg/kg; ED50 (Adjuvant arthritis-rat; [4]): < 2 mg/kg; ED50 (Adjuvant arthritis-rat; [5]): < 1.5 mg/kg

Structure (SMILES)	ED35 [1] [mg/kg]	ED35 ([2]; Table I) [mg/kg]	ED35 ([3]; Table I) [mg/kg]	other results
CC(=O)/C=C(\C)c1ccc(-c2ccccc2)c(Cl)c1 [L, (e)-4-(2-chloro-4-biphenylyl)-3-pentene-2-one]	10.6	5.6	15.5	–
C/C(=C\C(C)O)c1ccc(-c2ccccc2)c(Cl)c1 (centres unmarked) [M, (e)-4-(2-chloro-4-biphenylyl)-3-pentene-2-ol]	24.5	23	26	–
CC(=O)CC(C)c1ccc(-c2ccccc2)c(Cl)c1 (centres unmarked) [N, 4-(2-chloro-4-biphenylyl)-2-pentanone]	24	16.5	31.5	–
CC(O)CC(C)c1ccc(-c2ccccc2)c(Cl)c1 (centres unmarked) [O, 4(2-chloro-4-biphenylyl)-2-pentanol]	–	–	48	–
CC(=O)/C=C(\C)c1ccc(C2CCCCC2)c(Cl)c1 [P, (e)-4-(3-chloro-4-cyclohexyl-phenyl)-3-pentene-2-one]	12.8	8.6	17	ED35 ([2]; Table II): 8.6 mg/kg; ED35 ([3]; Table II): 17 mg/kg; ED50 (Adjuvant arthritis-rat; [4]): < 0.6 mg/kg; ED50 (Adjuvant arthritis-rat; [5]): < 0.7 mg/kg
CC(=O)CC(C)c1ccc(C2CCCCC2)c(Cl)c1 (centres unmarked) [Q, 4-(3-chloro-4-cyclohexyl-phenyl)-2-pentanone]	3.75	2.5	5	ED35 ([2]; Table II): 2.5 mg/kg; ED35 ([3]; Table II): 5 mg/kg; ED50 (Adjuvant arthritis-rat; [4]): < 0.2 mg/kg; ED50 (Adjuvant arthritis-rat; [5]): < 0.4 mg/kg
C/C(=C\C(C)O)c1ccc(C2CCCCC2)c(Cl)c1 (centres unmarked) [R, (e)-4-(3-chloro-4-cyclohexyl-phenyl)-3-pentene-2-ol]	3.95	3.1	4.8	ED35 ([2]; Table II): 3.1 mg/kg; ED35 ([3]; Table II): 4.8 mg/kg; ED50 (Adjuvant arthritis-rat; [4]): < 0.7 mg/kg; ED50 (Adjuvant arthritis-rat; [5]): < 0.3 mg/kg
CC(O)CC(C)c1ccc(C2CCCCC2)c(Cl)c1 (centres unmarked) [S, 4-(3-chloro-4-cyclohexyl-phenyl)-2-pentanol]	7.3	7	7.6	–
CC(=O)/C=C(\C)c1ccc(C2CCCCC2)cc1 [T, (e)-4-(4-cyclohexyl-phenyl)-3-pentene-2one]	12.2	12	12.5	–
CC(=O)CC(C)c1ccc(C2CCCCC2)cc1 (centres unmarked) [U, 4-(4-cyclohexyl-phenyl)-2-pentanone]	–	–	15	–
C/C(=C\C(C)O)c1ccc(C2CCCCC2)cc1 (centres unmarked) [V, (e)-4-(4-cyclohexyl-phenyl)-3-pentene-2-ol]	–	–	–	Average value ED35 [1]: 10.45 mgm/kg; Carrageenin edema ED35 per os ([2]; Table I): 7.6 mgm/kg; Kaolin edema ED35 per os ([3]; Table I): 13.3 mgm/kg
CC(O)CC(C)c1ccc(C2CCCCC2)cc1 (centres unmarked) [W, 4-(4-cyclohexyl-phenyl)-2-pentanol]	–	–	26	–
CC(=O)/C=C(\C)c1ccc(C2CCCCC2)c(Br)c1 [X, (e)-4-(3-bromo-4-cyclohexyl-phenyl)-3-pentene-2-one]	22	22	22	–
CC(=O)CC(C)c1ccc(C2CCCCC2)c(Br)c1 (centres unmarked) [Y, 4-(3-bromo-4-cyclohexyl-phenyl)-2-pentanone]	–	–	13	–
C/C(=C\C(C)O)c1ccc(C2CCCCC2)c(Br)c1 (centres unmarked) [Z, (e)-4-(3-bromo-4-cyclohexyl-phenyl)-3-pentene-2-ol]	–	–	16	–
